Test [1] concerns CFT073 Δlgt. Description: MIC assay, CFT073 Δlgt, Lgt 0.25% Ara. The class given is cell-based, E. coli. The method, then:
(§1) Unless stated otherwise, E. coli cells were grown in Luria-Bertani (LB) medium (0.5% yeast extract, 1% tryptone, 0.5% NaCl) at 37°C. Where indicated, kanamycin (Kan) was added to culture media at a 50-μg/ml final concentration. MIC assays were performed based on Clinical and Laboratory Standards Institute (CLSI) guidelines. For in vitro growth curves, overnight cultures of WT CFT073, CFT073 Δlgt, and CFT073 Δlgt complemented with lgt from E. coli (lgt^Ec) or P. aeruginosa (lgt^Pa) were grown to mid-exponential phase (optical density at 600 nm [OD600] of 0.6) and then diluted to an OD600 of 0.1 to initiate growth curves. At various times, culture aliquots were diluted and plated in dilutions on LB+Kan agar, and CFU were enumerated in duplicates. Growth of MG1655 inducible deletion strains was measured by culturing in the presence of 2-fold dilutions of arabinose (starting arabinose concentrations for CFT073 and MG1655 inducible deletion strains were 4% and 0.8%, respectively). While […] was sufficient for WT growth of MG1655 Δlgt, 4% arabinose was used for CFT073 Δlgt based on comparing its growth to that of WT CFT073 as measured by CFU. OD600 growth measurements were performed using an EnVision 2101 multilabel reader plate reader (PerkinElmer) linked with Echo liquid handler (Labcyte). For time-kill experiments, bacteria were harvested in mid-exponential phase and treated with 12.5 μM G2824, 3.2 μM globomycin, and 1.6 μM vancomycin. CFU were enumerated at various times posttreatment. Bacterial culture medium containing 2% arabinose was used to induce lpp or lppΔK expression from pBad24 plasmids. Bacterial viability at different time points during the treatment was measured by enumerating CFU. Serum killing assays were carried out as previously described ([17]).

For test [2], the system named is WT CFT073. Nature of the test: MIC assay, WT CFT073 (Table 1). The class given is cell-based, E. coli. Conditions: average of two independent experiments, each in duplicates, CLSI. As to the method: as §1
Test [3] relates to CFT073 Δlgt. Nature of the test: MIC assay, CFT073 Δlgt, Lgt 4% Ara. The class given is cell-based, E. coli. The note with it: Escherichia coli. As to the method: as §1
The subject of test [4] is BW25113 cells, lgt gRNA. Description: CRISPRi knockdown sensitization, lgt gRNA. Type of test: cell-based, E. coli. The note with it: 2 μM G2824, 0.05 μM globomycin or 0.016 μM ciprofloxacin; OD600 relative to untreated, versus scr or folA gRNA. From the text: (§2) The two-plasmid bacterial CRISPRi system pdCas9-bacteria_GNE and PGNRNA-bacteria_GNE are based on the AddGene plasmids 44249 and 44251 ([73]), respectively. The plasmid was synthesized in smaller DNA fragments (500 bp to 3 kb) (IDT gBlocks) and assembled by Gibson assembly (NEB) according to the manufacturer’s protocols. Plasmids were confirmed by sequencing (ELIM Bio). gRNAs were designed to target the 5′ end of the gene on the nontemplate strand using Benchling CRISPR software ([74]). gRNAs were cloned into PGNRNA-bacteria using Gibson assembly (NEB) according to the manufacturer’s protocols and sequence confirmed (ELIM Bio).
(§3) Bacterial cultures were grown overnight on LB agar supplemented with carbenicillin (50 μg/ml) and chloramphenicol (12.5 μg/ml) to maintain both plasmids, pdCas9-bacteria and PGNRNA-bacteria with each gRNA as appropriate. Cells were scraped from the plate into fresh medium. The OD600 was measured, and the culture was subsequently diluted to an OD600 0.001 in the presence or absence of G2824, globomycin, or ciprofloxacin. Two hundred microliters was transferred to a 96-well plate (Corning) and monitored for growth by measuring the OD600 (EnVision multimode plate reader; PerkinElmer). All treatments were performed in triplicates. The specificity of CRISPRi downregulation was measured using reverse transcriptase quantitative PCR (RT-qPCR).

Test [5] concerns BW25113 cells, lspA gRNA. Description: CRISPRi knockdown sensitization, lspA gRNA. The class given is cell-based, E. coli. Conditions: 2 μM G2824, 0.05 μM globomycin or 0.016 μM ciprofloxacin; OD600 relative to untreated, versus scr or folA gRNA.
Description: as §2, §3

The subject of test [6] is Lgt. Nature of the test: Lgt-dependent diacylglyceryl modification of peptide substrate (MS, SDS-PAGE). The class given is biochemical, E. coli.

Converted amounts (≈) assume the structure as drawn.

Regarding `CCn1cc(C(=O)O)c(=O)c2cc(F)c(N3CCNCC3)cc21` [Norfloxacin], the minimum inhibitory concentration (MIC) (commonly the lowest concentration found to suppress growth) in test [1] (Escherichia coli) was 0.2 µM (≈ 0.0639 µg/mL); in test [2] (Escherichia coli), 0.4 µM (≈ 0.128 µg/mL); in test [3], 0.6 µM (≈ 0.192 µg/mL).

`Cc1onc(-c2ccccc2)c1C(=O)N[C@@H]1C(=O)N2[C@@H]1SC(C)(C)[C@@H]2C(=O)O` [Oxacillin]: the MIC was 12.5 µM (≈ 5.02 µg/mL) in test [1] (Escherichia coli), over 100 µM in test [2] (Escherichia coli) and over 100 µM in test [3].

Take `CC1(C)S[C@@H]2[C@H](NC(=O)Cc3ccccc3)C(=O)N2[C@H]1C(=O)O` [Penicillin G]: the values for the minimum inhibitory concentration (MIC) in test [1] (Escherichia coli), in test [2] (Escherichia coli) and in test [3] were 0.8 µM (≈ 0.268 µg/mL), over 50 µM and over 50 µM, respectively.

Consider `CO[C@H]1/C=C/O[C@@]2(C)Oc3c(C)c(O)c4c(O)c(cc(O)c4c3C2=O)NC(=O)/C(C)=C\C=C\[C@H](C)[C@H](O)[C@@H](C)[C@@H](O)[C@@H](C)[C@H](OC(C)=O)[C@@H]1C` [Rifamycin], for which the minimal inhibitory concentration (MIC) in test [1] (Escherichia coli) turned out to be 0.8 µM (≈ 0.558 µg/mL); in test [2] (Escherichia coli) it was 6.3 µM (≈ 4.4 µg/mL).

Regarding `Cc1c(N)nc([C@H](CC(N)=O)NC[C@H](N)C(N)=O)nc1C(=O)N[C@H](C(=O)N[C@H](C)[C@@H](O)[C@H](C)C(=O)N[C@H](C(=O)NCCC1=N[C@@H](c2nc(C(=O)NCCCCN=C(N)N)cs2)CS1)[C@@H](C)O)[C@@H](O[C@@H]1O[C@@H](CO)[C@@H](O)[C@H](O)[C@@H]1O[C@H]1O[C@H](CO)[C@@H](O)[C@H](OC(N)=O)[C@@H]1O)c1cnc[nH]1` [Zeocin], the minimum inhibitory concentration (MIC) in test [1] (CFT073 Δlgt, Lgt 0.25% Ara (low Lgt level), average of two independent experiments, each in duplicates, CLSI) turned out to be 0.8 µM (≈ 1.14 µg/mL); in test [2] it was 12.5 µM (≈ 17.8 µg/mL).

`O=C(O)c1cn(C2CC2)c2cc(N3CCNCC3)c(F)cc2c1=O` [ciprofloxacin]: in test [4], the “sensitization by decreased lgt expression” value is recorded as “did not lead to increased sensitivity”. Moreover, the “sensitization by decreased lspA expression” value in test [5] is “did not lead to increased sensitivity”.

With “MQLNKVLKGLMIALPVMAIAACSSNKN [Pal-IAAC, peptide substrate derived from the Pal lipoprotein]”, in test [6] (SDS-PAGE, Coomassie blue), the “diacylglyceryl modification by SDS-PAGE” value is “is Lgt dependent”. Besides, the “diacylglyceryl modification, mass addition” value in test [6] (mass spectrometry, Lgt dependent) is recorded as 552 Da.

The values above are taken from paper PMC8316002, “Inhibition of Escherichia coli Lipoprotein Diacylglyceryl Transferase Is Insensitive to Resistance Caused by Deletion of Braun’s Lipoprotein” (Journal of Bacteriology, 2021).
